According to the kinase profiling compilation of Christmann-Franck et al. (2016):

Legend:
Assay in all cases: KINOMEscan competition binding
Conditions in all cases: compound 10.0 µM
ANKK1 (human) = ANKK1 (human) (UniProt Q8NFD2)
CDC2L2 (human) = CDC2L2 (human) (UniProt Q9UQ88)
CDK16 (human) = CDK16 (human) (UniProt Q00536)
[1] = tested on: EGFR (human), P00533 [P753S; 747-752 del]
FGFR1 (human) = FGFR1 (human) (UniProt P11362)
FGFR4 (human) = FGFR4 (human) (UniProt P22455)
FLT3 (human) = FLT3 (human) (UniProt P36888)
[2] = tested on: FLT3 (human), P36888 [K663Q]
MAP4K3 (human) = MAP4K3 (human) (UniProt Q8IVH8)
MKNK2 (human) = MKNK2 (human) (UniProt Q9HBH9)
NTRK3 (human) = NTRK3 (human) (UniProt Q16288)
PRKCE (human) = PRKCE (human) (UniProt Q02156)
PTK2 (human) = PTK2 (human) (UniProt Q05397)
SRMS (human) = SRMS (human) (UniProt Q9H3Y6)
TAOK1 (human) = TAOK1 (human) (UniProt Q7L7X3)
[3] = molecular target: TYK2 JH2 pseudokinase (human) (UniProt P29597)
ACVR1B (human) = ACVR1B (human) (UniProt P36896)
ACVRL1 (human) = ACVRL1 (human) (UniProt P37023)
AURKB (human) = AURKB (human) (UniProt Q96GD4)
AURKC (human) = AURKC (human) (UniProt Q9UQB9)
AXL (human) = AXL (human) (UniProt P30530)
BRSK2 (human) = BRSK2 (human) (UniProt Q8IWQ3)
EIF2AK2 (human) = EIF2AK2 (human) (UniProt P19525)
EPHA5 (human) = EPHA5 (human) (UniProt P54756)
IKBKE (human) = IKBKE (human) (UniProt Q14164)
[4] = molecular target: JAK1 JH1 catalytic (human) (UniProt P23458)
MAP3K10 (human) = MAP3K10 (human) (UniProt Q02779)
MARK1 (human) = MARK1 (human) (UniProt Q9P0L2)
MINK1 (human) = MINK1 (human) (UniProt Q8N4C8)
MST4 (human) = MST4 (human) (UniProt Q9P289)
NEK7 (human) = NEK7 (human) (UniProt Q8TDX7)
NUAK2 (human) = NUAK2 (human) (UniProt Q9H093)
PIK3CG (human) = PIK3CG (human) (UniProt P48736)
PKN2 (human) = PKN2 (human) (UniProt Q16513)
PRKCD (human) = PRKCD (human) (UniProt Q05655)
SRPK3 (human) = SRPK3 (human) (UniProt Q9UPE1)
STK32B (human) = STK32B (human) (UniProt Q9NY57)
TESK1 (human) = TESK1 (human) (UniProt Q15569)
TGFBR2 (human) = TGFBR2 (human) (UniProt P37173)
[5] = molecular target: TYK2 JH1 catalytic (human) (UniProt P29597)
TYRO3 (human) = TYRO3 (human) (UniProt Q06418)
ULK2 (human) = ULK2 (human) (UniProt Q8IYT8)

Chain of FGFR1 (human) (P11362 whole entry, looked up): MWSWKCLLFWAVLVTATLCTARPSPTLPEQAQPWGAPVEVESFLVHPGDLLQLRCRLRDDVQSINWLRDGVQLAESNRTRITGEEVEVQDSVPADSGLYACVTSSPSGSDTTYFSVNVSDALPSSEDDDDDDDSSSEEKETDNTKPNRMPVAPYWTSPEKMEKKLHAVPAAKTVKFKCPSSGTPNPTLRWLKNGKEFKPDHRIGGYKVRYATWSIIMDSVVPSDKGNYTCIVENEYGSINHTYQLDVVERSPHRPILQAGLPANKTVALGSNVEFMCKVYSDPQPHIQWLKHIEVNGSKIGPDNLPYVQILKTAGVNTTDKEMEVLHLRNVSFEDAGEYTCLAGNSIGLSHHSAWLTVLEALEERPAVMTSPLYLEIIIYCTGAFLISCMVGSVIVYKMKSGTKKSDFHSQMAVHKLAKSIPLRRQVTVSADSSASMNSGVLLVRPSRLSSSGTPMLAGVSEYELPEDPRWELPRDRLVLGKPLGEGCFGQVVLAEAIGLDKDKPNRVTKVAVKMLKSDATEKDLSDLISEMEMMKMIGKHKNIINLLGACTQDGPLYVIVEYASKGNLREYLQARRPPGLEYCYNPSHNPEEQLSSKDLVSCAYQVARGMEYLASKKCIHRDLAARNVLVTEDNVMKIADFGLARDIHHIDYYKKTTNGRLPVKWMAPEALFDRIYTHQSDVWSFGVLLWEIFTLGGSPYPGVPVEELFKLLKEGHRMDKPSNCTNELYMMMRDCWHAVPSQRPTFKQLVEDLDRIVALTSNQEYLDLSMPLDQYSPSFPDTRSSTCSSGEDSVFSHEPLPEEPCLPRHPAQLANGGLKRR
Chain of MKNK2 (human) (Q9HBH9 whole entry, looked up): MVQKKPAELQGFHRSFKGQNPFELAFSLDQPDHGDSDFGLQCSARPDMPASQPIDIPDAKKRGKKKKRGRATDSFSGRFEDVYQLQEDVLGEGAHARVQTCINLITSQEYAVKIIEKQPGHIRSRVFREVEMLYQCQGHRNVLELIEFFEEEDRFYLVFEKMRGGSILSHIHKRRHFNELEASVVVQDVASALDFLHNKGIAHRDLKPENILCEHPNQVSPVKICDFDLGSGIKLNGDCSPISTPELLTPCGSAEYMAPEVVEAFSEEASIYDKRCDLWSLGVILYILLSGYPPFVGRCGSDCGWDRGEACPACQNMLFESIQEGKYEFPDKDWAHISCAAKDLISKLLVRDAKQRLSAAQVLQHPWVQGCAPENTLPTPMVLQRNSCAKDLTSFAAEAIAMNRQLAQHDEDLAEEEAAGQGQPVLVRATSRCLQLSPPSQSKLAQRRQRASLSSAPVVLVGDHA
Chain of MAP4K3 (human) (Q8IVH8 whole entry, looked up): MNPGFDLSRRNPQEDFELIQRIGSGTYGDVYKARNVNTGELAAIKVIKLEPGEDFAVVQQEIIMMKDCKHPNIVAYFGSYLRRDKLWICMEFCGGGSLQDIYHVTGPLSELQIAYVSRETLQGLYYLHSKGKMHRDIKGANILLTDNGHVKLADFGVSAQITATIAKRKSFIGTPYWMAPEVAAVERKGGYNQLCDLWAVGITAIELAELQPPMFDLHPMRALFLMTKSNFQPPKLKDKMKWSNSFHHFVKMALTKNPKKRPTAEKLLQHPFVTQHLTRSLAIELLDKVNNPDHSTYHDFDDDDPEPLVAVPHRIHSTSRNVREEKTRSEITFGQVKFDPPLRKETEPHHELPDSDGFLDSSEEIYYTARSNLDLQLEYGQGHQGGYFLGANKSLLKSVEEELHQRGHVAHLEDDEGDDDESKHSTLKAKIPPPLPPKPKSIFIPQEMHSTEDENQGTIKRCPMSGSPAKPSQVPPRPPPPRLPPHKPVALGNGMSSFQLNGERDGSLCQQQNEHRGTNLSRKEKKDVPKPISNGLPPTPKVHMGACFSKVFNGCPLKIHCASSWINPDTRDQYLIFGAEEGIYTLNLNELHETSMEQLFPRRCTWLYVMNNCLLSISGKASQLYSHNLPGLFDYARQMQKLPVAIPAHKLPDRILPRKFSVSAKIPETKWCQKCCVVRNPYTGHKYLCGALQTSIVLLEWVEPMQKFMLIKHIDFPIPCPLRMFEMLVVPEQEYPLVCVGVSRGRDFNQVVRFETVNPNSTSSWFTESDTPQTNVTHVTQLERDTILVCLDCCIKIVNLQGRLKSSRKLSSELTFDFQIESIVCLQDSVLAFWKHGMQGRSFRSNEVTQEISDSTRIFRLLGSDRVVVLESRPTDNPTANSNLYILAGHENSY
Chain of TYK2 JH2 pseudokinase (human) (P29597 whole entry, looked up): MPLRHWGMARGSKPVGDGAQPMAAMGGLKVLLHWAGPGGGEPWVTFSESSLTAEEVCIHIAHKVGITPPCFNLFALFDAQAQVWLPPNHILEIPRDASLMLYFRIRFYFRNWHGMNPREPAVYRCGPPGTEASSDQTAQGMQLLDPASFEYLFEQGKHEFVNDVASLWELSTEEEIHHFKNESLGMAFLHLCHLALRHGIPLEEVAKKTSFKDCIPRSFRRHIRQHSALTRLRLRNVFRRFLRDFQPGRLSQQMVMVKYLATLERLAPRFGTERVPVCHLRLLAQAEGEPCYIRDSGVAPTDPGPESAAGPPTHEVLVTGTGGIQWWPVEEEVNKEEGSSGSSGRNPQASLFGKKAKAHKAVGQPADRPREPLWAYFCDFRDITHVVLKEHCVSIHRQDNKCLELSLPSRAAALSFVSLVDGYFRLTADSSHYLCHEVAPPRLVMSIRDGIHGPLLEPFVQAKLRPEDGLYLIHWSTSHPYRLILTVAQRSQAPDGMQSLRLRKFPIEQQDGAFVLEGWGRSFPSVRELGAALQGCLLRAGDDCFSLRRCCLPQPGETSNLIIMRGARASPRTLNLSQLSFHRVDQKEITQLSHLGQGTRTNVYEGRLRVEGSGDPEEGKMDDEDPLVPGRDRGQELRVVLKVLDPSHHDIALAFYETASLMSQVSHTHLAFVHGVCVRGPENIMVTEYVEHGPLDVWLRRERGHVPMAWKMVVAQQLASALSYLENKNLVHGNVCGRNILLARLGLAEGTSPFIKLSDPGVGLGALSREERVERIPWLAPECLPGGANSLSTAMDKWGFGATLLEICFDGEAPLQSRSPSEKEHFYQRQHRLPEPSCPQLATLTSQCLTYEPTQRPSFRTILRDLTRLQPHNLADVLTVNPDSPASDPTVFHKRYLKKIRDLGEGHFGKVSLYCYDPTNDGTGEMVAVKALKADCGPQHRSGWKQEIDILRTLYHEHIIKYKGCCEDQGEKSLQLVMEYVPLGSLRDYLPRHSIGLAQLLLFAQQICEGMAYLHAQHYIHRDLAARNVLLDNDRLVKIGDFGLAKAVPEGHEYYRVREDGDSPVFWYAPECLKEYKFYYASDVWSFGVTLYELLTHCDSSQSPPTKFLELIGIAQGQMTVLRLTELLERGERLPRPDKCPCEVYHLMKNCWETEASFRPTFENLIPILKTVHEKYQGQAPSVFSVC
Chain of PTK2 (human) (Q05397 whole entry, looked up): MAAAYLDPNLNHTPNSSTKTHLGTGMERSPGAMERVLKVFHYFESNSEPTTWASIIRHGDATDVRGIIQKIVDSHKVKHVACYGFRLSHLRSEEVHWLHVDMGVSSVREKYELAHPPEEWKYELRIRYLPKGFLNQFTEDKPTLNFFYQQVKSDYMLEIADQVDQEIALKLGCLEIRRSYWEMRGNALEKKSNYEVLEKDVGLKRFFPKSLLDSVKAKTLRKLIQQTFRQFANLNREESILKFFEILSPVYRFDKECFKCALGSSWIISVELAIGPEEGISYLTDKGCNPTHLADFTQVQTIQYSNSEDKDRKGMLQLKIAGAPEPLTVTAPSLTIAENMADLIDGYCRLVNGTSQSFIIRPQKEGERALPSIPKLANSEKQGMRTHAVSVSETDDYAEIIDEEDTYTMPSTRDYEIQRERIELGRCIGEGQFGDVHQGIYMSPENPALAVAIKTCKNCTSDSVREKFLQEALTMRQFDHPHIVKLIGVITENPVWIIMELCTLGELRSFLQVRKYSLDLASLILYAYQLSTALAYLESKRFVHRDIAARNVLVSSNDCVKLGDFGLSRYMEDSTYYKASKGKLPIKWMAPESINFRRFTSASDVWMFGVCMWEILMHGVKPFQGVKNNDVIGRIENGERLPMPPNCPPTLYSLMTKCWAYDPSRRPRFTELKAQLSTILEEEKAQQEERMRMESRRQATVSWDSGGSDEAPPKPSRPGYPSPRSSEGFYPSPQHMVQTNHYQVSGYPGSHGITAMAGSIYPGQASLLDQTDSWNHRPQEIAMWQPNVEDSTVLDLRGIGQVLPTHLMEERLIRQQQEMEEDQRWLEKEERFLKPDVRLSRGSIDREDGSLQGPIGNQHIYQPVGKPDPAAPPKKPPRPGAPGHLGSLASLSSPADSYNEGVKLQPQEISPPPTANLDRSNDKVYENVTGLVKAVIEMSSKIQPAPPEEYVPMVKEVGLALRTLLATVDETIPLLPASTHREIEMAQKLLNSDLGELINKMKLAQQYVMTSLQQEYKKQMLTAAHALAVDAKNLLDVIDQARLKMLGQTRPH
Chain of SRMS (human) (Q9H3Y6 whole entry, looked up): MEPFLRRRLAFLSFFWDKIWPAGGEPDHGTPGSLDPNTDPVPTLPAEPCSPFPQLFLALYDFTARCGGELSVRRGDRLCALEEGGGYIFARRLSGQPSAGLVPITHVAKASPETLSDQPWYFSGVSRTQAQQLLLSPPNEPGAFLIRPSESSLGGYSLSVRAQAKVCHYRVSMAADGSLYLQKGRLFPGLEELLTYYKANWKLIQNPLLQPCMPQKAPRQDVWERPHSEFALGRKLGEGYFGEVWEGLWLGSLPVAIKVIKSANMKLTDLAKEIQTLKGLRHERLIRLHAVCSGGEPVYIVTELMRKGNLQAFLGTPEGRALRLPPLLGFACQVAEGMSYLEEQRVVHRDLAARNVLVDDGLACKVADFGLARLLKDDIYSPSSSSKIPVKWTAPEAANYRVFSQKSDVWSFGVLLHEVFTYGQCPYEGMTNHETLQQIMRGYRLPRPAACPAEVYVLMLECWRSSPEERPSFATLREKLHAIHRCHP
Chain of TYK2 JH1 catalytic (human) (P29597 whole entry, looked up): as the sequence (P29597 whole entry, looked up) above

With `CCN1CCN(Cc2ccc(NC(=O)c3ccc(C)c(Oc4ccnc5[nH]ccc45)c3)cc2C(F)(F)F)CC1` the kinase still bound, per cent of control (ANKK1 (human)) was 23%, the kinase still bound, per cent of control (CDC2L2 (human)) was 0.05% and the kinase still bound, per cent of control (CDK16 (human)) was 11%. For the same molecule, the kinase still bound, per cent of control [1] was 1.2%, the kinase still bound, per cent of control (FGFR1 (human)) was 1.7% and the kinase still bound, per cent of control (FGFR4 (human)) was 0.45%. It also gave a kinase still bound, per cent of control (FLT3 (human)) of 0.15%, a kinase still bound, per cent of control [2] of 0% and a kinase still bound, per cent of control (MAP4K3 (human)) of 18%. It also gave a kinase still bound, per cent of control (MKNK2 (human)) of 4.2%, a kinase still bound, per cent of control (NTRK3 (human)) of 3.8% and a kinase still bound, per cent of control (PRKCE (human)) of 20%. It also gave a kinase still bound, per cent of control (PTK2 (human)) of 23%, a kinase still bound, per cent of control (SRMS (human)) of 4.6% and a kinase still bound, per cent of control (TAOK1 (human)) of 3%. The kinase still bound, per cent of control [3] was 0%.

`COc1cc(N2CCC(N3CCN(C)CC3)CC2)ccc1Nc1ncc(Cl)c(Nc2ccccc2S(=O)(=O)C(C)C)n1` gave a kinase still bound, per cent of control (ACVR1B (human)) of 0.05%, a kinase still bound, per cent of control (ACVRL1 (human)) of 1.7% and a kinase still bound, per cent of control (ANKK1 (human)) of 40%. The kinase still bound, per cent of control (AURKB (human)) was 1%, the kinase still bound, per cent of control (AURKC (human)) was 0.1% and the kinase still bound, per cent of control (AXL (human)) was 0.1%. For the same molecule, the kinase still bound, per cent of control (BRSK2 (human)) was 0.5%, the kinase still bound, per cent of control [1] was 0.95% and the kinase still bound, per cent of control (EIF2AK2 (human)) was 40%. The kinase still bound, per cent of control (EPHA5 (human)) was 21%, the kinase still bound, per cent of control (FGFR1 (human)) was 0% and the kinase still bound, per cent of control (IKBKE (human)) was 25%. It also gave a kinase still bound, per cent of control [4] of 4.7%, a kinase still bound, per cent of control (MAP3K10 (human)) of 4.6% and a kinase still bound, per cent of control (MAP4K3 (human)) of 2.5%. The kinase still bound, per cent of control (MARK1 (human)) was 0%, the kinase still bound, per cent of control (MINK1 (human)) was 40% and the kinase still bound, per cent of control (MKNK2 (human)) was 1.4%. It also gave a kinase still bound, per cent of control (MST4 (human)) of 27%, a kinase still bound, per cent of control (NEK7 (human)) of 3.8% and a kinase still bound, per cent of control (NTRK3 (human)) of 40%. For the same molecule, the kinase still bound, per cent of control (NUAK2 (human)) was 0%, the kinase still bound, per cent of control (PIK3CG (human)) was 40% and the kinase still bound, per cent of control (PKN2 (human)) was 3.2%. It also gave a kinase still bound, per cent of control (PRKCD (human)) of 28%, a kinase still bound, per cent of control (PTK2 (human)) of 0% and a kinase still bound, per cent of control (SRMS (human)) of 0%. It also gave a kinase still bound, per cent of control (SRPK3 (human)) of 1.7%, a kinase still bound, per cent of control (STK32B (human)) of 0.2% and a kinase still bound, per cent of control (TAOK1 (human)) of 0.1%. The kinase still bound, per cent of control (TESK1 (human)) was 40%, the kinase still bound, per cent of control (TGFBR2 (human)) was 2.7% and the kinase still bound, per cent of control [5] was 0.45%. For the same molecule, the kinase still bound, per cent of control [3] was 11%, the kinase still bound, per cent of control (TYRO3 (human)) was 24% and the kinase still bound, per cent of control (ULK2 (human)) was 1.1%.

For `CCOc1cc(N2CCC(N3CCCCC3)CC2)ccc1Nc1nc(Nc2ccccc2S(=O)(=O)C(C)C)c2cn[nH]c2n1`, the kinase still bound, per cent of control (ACVR1B (human)) was 100%, the kinase still bound, per cent of control (ACVRL1 (human)) was 100% and the kinase still bound, per cent of control (ANKK1 (human)) was 100%. It also gave a kinase still bound, per cent of control (AURKB (human)) of 100%, a kinase still bound, per cent of control (AURKC (human)) of 100% and a kinase still bound, per cent of control (AXL (human)) of 100%. The kinase still bound, per cent of control (BRSK2 (human)) was 94%, the kinase still bound, per cent of control (CDC2L2 (human)) was 100% and the kinase still bound, per cent of control (CDK16 (human)) was 98%. For the same molecule, the kinase still bound, per cent of control [1] was 40%, the kinase still bound, per cent of control (EIF2AK2 (human)) was 100% and the kinase still bound, per cent of control (EPHA5 (human)) was 100%. It also gave a kinase still bound, per cent of control (FGFR1 (human)) of 100%, a kinase still bound, per cent of control (FGFR4 (human)) of 100% and a kinase still bound, per cent of control (FLT3 (human)) of 100%. It also gave a kinase still bound, per cent of control [2] of 100%, a kinase still bound, per cent of control (IKBKE (human)) of 100% and a kinase still bound, per cent of control [4] of 100%. The kinase still bound, per cent of control (MAP3K10 (human)) was 100%, the kinase still bound, per cent of control (MAP4K3 (human)) was 10% and the kinase still bound, per cent of control (MARK1 (human)) was 100%. It also gave a kinase still bound, per cent of control (MINK1 (human)) of 71%, a kinase still bound, per cent of control (MKNK2 (human)) of 100% and a kinase still bound, per cent of control (MST4 (human)) of 100%. The kinase still bound, per cent of control (NEK7 (human)) was 100%, the kinase still bound, per cent of control (NTRK3 (human)) was 54% and the kinase still bound, per cent of control (NUAK2 (human)) was 27%. For the same molecule, the kinase still bound, per cent of control (PIK3CG (human)) was 100%, the kinase still bound, per cent of control (PKN2 (human)) was 100% and the kinase still bound, per cent of control (PRKCD (human)) was 100%. The kinase still bound, per cent of control (PRKCE (human)) was 62%, the kinase still bound, per cent of control (PTK2 (human)) was 0.2% and the kinase still bound, per cent of control (SRMS (human)) was 27%. It also gave a kinase still bound, per cent of control (SRPK3 (human)) of 100%, a kinase still bound, per cent of control (STK32B (human)) of 64% and a kinase still bound, per cent of control (TAOK1 (human)) of 33%. For the same molecule, the kinase still bound, per cent of control (TESK1 (human)) was 100%, the kinase still bound, per cent of control (TGFBR2 (human)) was 100% and the kinase still bound, per cent of control [5] was 87%. It also gave a kinase still bound, per cent of control [3] of 63%, a kinase still bound, per cent of control (TYRO3 (human)) of 100% and a kinase still bound, per cent of control (ULK2 (human)) of 3.4%.
